Key:
Assay in all cases: relative viability (nuclei count vs DMSO), 5 days (fraction); higher = more cells survive
[1] = compound: COC1=C(C=C(C=C1)C2=CC3=NC=CN3C(=N2)NC4=C(C=CC=N4)C(=O)N)OC [BAY61-3606] + COc1cc2c(Oc3ccc(NC(=O)C4(C(=O)Nc5ccc(F)cc5)CC4)cc3F)ccnc2cc1OCCCN1CCOCC1 [Foretinib] (partner 0.25 µM)
Summary of the method: (§1)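 The day after seeding in 1536-well plates, lung cancer cell lines were treated by pin tool with a single drug, or with a fixed anchor-drug dose together with five library-drug doses (not always all listed) in √10 steps. After 5 days, a combined fix-and-stain solution (final 0.05% Triton X-100, 1% formaldehyde, 1 ug/ml Hoechst) was added. Nuclei counted on 4× images gave relative viability as treated counts over vehicle counts, reported as the median of duplicate plates.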

[2] = compound: COC1=C(C=C(C=C1)C2=CC3=NC=CN3C(=N2)NC4=C(C=CC=N4)C(=O)N)OC [BAY61-3606] + C[C@@H](Oc1cc(-c2cnn(C3CCNCC3)c2)cnc1N)c1c(Cl)ccc(F)c1Cl [Crizotinib] (partner 1 µM)
Summary of the method: as §1

[3] = compound: COC1=C(C=C(C=C1)C2=CC3=NC=CN3C(=N2)NC4=C(C=CC=N4)C(=O)N)OC [BAY61-3606] + C[C@]1(O)C[C@@H](c2nc(-c3ccc4ccc(-c5ccccc5)nc4c3)c3c(N)nccn32)C1 [Linsitinib] (partner 1 µM)
Summary of the method: as §1

[4] = compound: COc1cccc2c1C(=O)c1c(O)c3c(c(O)c1C2=O)C[C@@](O)(C(=O)CO)C[C@@H]3O[C@H]1C[C@H](N)[C@H](O)[C@H](C)O1 [Doxorubicin] + CS(=O)(=O)N1CCN(Cc2cc3nc(-c4cccc5[nH]ncc45)nc(N4CCOCC4)c3s2)CC1 [Pictilisib] (partner 1 µM)
Summary of the method: as §1

| Cell Line | relative viability ([1]; first compound 0.02 µM) | relative viability ([1]; first compound 0.06325 µM) | relative viability ([1]; first compound 0.2 µM) | relative viability ([1]; first compound 0.6325 µM) | relative viability ([1]; first compound 2 µM) | relative viability ([2]; first compound 0.02 µM) | relative viability ([2]; first compound 0.06325 µM) | relative viability ([2]; first compound 0.2 µM) | relative viability ([2]; first compound 0.6325 µM) | relative viability ([2]; first compound 2 µM) | relative viability ([3]; first compound 0.02 µM) | relative viability ([3]; first compound 0.06325 µM) | relative viability ([3]; first compound 0.2 µM) | relative viability ([3]; first compound 0.6325 µM) | relative viability ([3]; first compound 2 µM) | relative viability ([4]; first compound 0.001 µM) | relative viability ([4]; first compound 0.003162 µM) | relative viability ([4]; first compound 0.01 µM) | relative viability ([4]; first compound 0.03162 µM) | relative viability ([4]; first compound 0.1 µM) |
| --- | --- | --- | --- | --- | --- | --- | --- | --- | --- | --- | --- | --- | --- | --- | --- | --- | --- | --- | --- | --- |
| EBC-1 | 0.105 | 0.0977 | 0.0899 | 0.0956 | 0.102 | 0.2 | 0.195 | 0.23 | 0.16 | 0.224 | 1.02 | 0.91 | 0.835 | 0.949 | 0.628 | 0.388 | 0.405 | 0.295 | 0.195 | 0.11 |
| NCI-H3122 | 0.952 | 1.07 | 0.94 | 0.962 | 0.969 | 0.252 | 0.286 | 0.279 | 0.272 | 0.219 | 1.08 | 1.08 | 0.974 | 0.924 | 0.918 | 0.507 | 0.62 | 0.566 | 0.527 | 0.611 |
| NCI-H2009 | 1.34 | 1.31 | 1.22 | 1.26 | 1.06 | 1.06 | 1.12 | 1.01 | 1.08 | 0.921 | 1.19 | 1.28 | 1.18 | 1.18 | 1.07 | 0.712 | 0.777 | 0.719 | 0.535 | 0.282 |
| NCI-H520 | 0.935 | 0.716 | 0.839 | 0.669 | 0.744 | 0.881 | 0.782 | 0.871 | 0.948 | 0.593 | 1.14 | 1.04 | 1.08 | 1.16 | 0.94 | 0.264 | 0.326 | 0.228 | 0.239 | 0.191 |
| ChaGo-K-1 | 0.868 | 0.834 | 0.93 | 0.948 | 0.788 | 1.09 | 0.832 | 1.06 | 1.14 | 1.05 | – | – | – | – | – | 0.971 | 0.506 | 0.621 | 0.369 | 0.238 |
| NCI-H2170 | 0.993 | 1.03 | 1.02 | 0.523 | 0.782 | 1.27 | 1.27 | 1.19 | 1.16 | 0.87 | – | – | – | – | – | 0.234 | 0.302 | 0.352 | 0.316 | 0.38 |
| NCI-H1650 | 1.14 | 1.02 | 1.02 | 1.34 | 0.498 | 0.936 | 1.08 | 0.866 | 1 | 0.385 | – | – | – | – | – | 0.29 | 0.371 | 0.241 | 0.159 | 0.119 |
| NCI-H1395 | 1.13 | 0.934 | 0.951 | 0.995 | 0.807 | – | – | – | – | – | 1.39 | 0.989 | 1.1 | 1.1 | 0.888 | 0.682 | 0.623 | 0.648 | 0.628 | 0.421 |
| NCI-H1792 | – | – | – | – | – | 0.944 | 1.03 | 0.777 | 0.947 | 1.08 | 0.531 | 0.494 | 0.591 | 0.627 | 0.627 | 0.325 | 0.287 | 0.309 | 0.209 | 0.251 |
| SW 900 | 0.826 | 0.949 | 0.571 | 1.11 | 0.586 | – | – | – | – | – | – | – | – | – | – | – | – | – | – | – |

— the supplement of paper PMC10307832
